From patent US8178579B2, “Dioxanes and uses thereof” (President and Fellows of Harvard College, priority 2001, dated 2012)

Tested on: α-tubulin acetylation in the presence of ITSA1
Assay: ITSA1+AcTubulin assay: suppression of induced acetylation by ITSA1
Format: cell-based, human
Details: ITSA1 50 μM, A549 cells
Protocol: A549 cells were seeded at a density of 4,000 cells/50 μl in DMEM+ in white tissue culture-treated 384-well plates (Nalge Nunc) using a Multidrop 384 liquid dispenser (Labsystems). Library small molecules were pinned twice (100-150 nl/pin) from ˜1 mM stock solutions (DMSO) and incubated for 18 hours. For the ITSA1+AcTubulin assay, ITSA1 (50 μM) was added four hours after pin-transfer of library molecules. Media was aspirated with a 16-channel wand. […] Plates were read on an Analyst plate reader (LJL Biosystems) with an integration time of 0.1 seconds.
Bromodeoxyuridine labeling and fluorescence-activated cell sorting (FACS) were performed as described (K. M. Koeller et al., Chemistry & Biology, 10 (5) (2003) pp. 397-410). […]

SMILES: O=C(CCCCCCC(=O)Nc1ccc([C@@H]2OC(c3ccc(CO)cc3)C[C@H](CSc3nc(-c4ccccc4)c(-c4ccccc4)o3)O2)cc1)NO (stereo partly shown) [tubacin]
- suppression of the induced acetylation by ITSA1: partially suppressed by ITSA1
